This passage reports T/C results from PubChem BioAssay AID288 (DTP/NCI, 2004).

The subject of this assay is BDF1 mice, M5076 sarcoma s.c., survival/tumor T/C. Description: NCI In Vivo Anticancer Drug Screen. Data for tumor model Sarcoma M5076 (subcutaneous) in B6D2F1 (BDF1) mice. Here is the method: The antitumor activity of compounds was measured in mice bearing transplantable tumors. Survival or tumor size were measured and the results are expressed as the measurement made in the treated group (T) divided by the measurement made in the vehicle treated control group (C). The tumor model used in this assay is Sarcoma M5076 (subcutaneous) in B6D2F1 (BDF1) mice

Values joined by “and” are separate entries in the source; they are usually repeats but may differ in a detail not shown here. Equal entries are not always repeated. Inconclusive results are not listed.

Consider `CNc1nc(N(C)C)nc(N(C)C)n1`, for which the T/C by setting is: (endpoint: median tumor weight (est.), dose: 15.0 mg/kg/injection, schedule: Q02DX011 (ip), vehicle: water, higher = larger tumour) 87 % of control; (endpoint: median tumor weight (est.), dose: 30.0 mg/kg/injection, schedule: Q02DX011 (ip), vehicle: water, higher = larger tumour) 85 % of control; (endpoint: median tumor weight (est.), dose: 60.0 mg/kg/injection, schedule: Q02DX011 (ip), vehicle: water, higher = larger tumour) 43 % of control; (endpoint: median tumor weight (est.), dose: 120.0 mg/kg/injection, schedule: Q02DX011 (ip), vehicle: water, higher = larger tumour) 13 % of control.
As for `COC1CC23OC2(C1)C1C=CC3N(C(=O)OCC(Cl)(Cl)Cl)N1C(=O)OCC(Cl)(Cl)Cl` (centres undefined), the T/C (endpoint: median survival time, dose: 50.0 mg/kg/injection, schedule: Q01DX009 (ip), vehicle: saline with Tween-80, higher = longer survival) is 100 % of control and 94 % of control; the T/C (endpoint: median survival time, dose: 100.0 mg/kg/injection, schedule: Q01DX009 (ip), vehicle: saline with Tween-80, higher = longer survival) was 102 % of control and 89 % of control; the T/C (endpoint: median survival time, dose: 200.0 mg/kg/injection, schedule: Q01DX009 (ip), vehicle: saline with Tween-80, higher = longer survival) is 98 % of control and 110 % of control; the T/C (endpoint: median tumor weight (est.), dose: 50.0 mg/kg/injection, schedule: Q01DX009 (ip), vehicle: saline with Tween-80, higher = larger tumour) was 111 % of control and 93 % of control; the T/C (endpoint: median tumor weight (est.), dose: 100.0 mg/kg/injection, schedule: Q01DX009 (ip), vehicle: saline with Tween-80, higher = larger tumour) was 66 % of control and 77 % of control; the T/C (endpoint: median tumor weight (est.), dose: 200.0 mg/kg/injection, schedule: Q01DX009 (ip), vehicle: saline with Tween-80, higher = larger tumour) was 90 % of control.
Regarding `CC(C)[C@](O)(C(=O)OCC1=CC[N+]2([O-])CC[C@@H](O)[C@@H]12)[C@H](C)O` (some centres undefined), the T/C is 96 % of control (endpoint: mean tumor weight, dose: 75.0 mg/kg/injection, schedule: Q02DX011 (ip), vehicle: saline, higher = larger tumour); 53 % of control (endpoint: mean tumor weight, dose: 100.0 mg/kg/injection, schedule: Q02DX011 (ip), vehicle: saline, higher = larger tumour); 82 % of control (endpoint: mean tumor weight, dose: 150.0 mg/kg/injection, schedule: Q02DX011 (ip), vehicle: saline, higher = larger tumour); 37 % of control (endpoint: mean tumor weight, dose: 200.0 mg/kg/injection, schedule: Q02DX011 (ip), vehicle: saline, higher = larger tumour); 6 % of control (endpoint: mean tumor weight, dose: 300.0 mg/kg/injection, schedule: Q02DX011 (ip), vehicle: saline, higher = larger tumour); 13 % of control (endpoint: mean tumor weight, dose: 400.0 mg/kg/injection, schedule: Q02DX011 (ip), vehicle: saline, higher = larger tumour). The T/C (endpoint: median survival time, dose: 200.0 mg/kg/injection, schedule: Q01DX007 (ip), vehicle: saline, higher = longer survival) was 95 % of control; the T/C (endpoint: median survival time, dose: 400.0 mg/kg/injection, schedule: Q01DX007 (ip), vehicle: saline, higher = longer survival) is 117 % of control; the T/C (endpoint: median survival time, dose: 540.0 mg/kg/injection, schedule: Q04DX003 (ip), vehicle: saline, higher = longer survival) was 104 % of control; the T/C (endpoint: median survival time, dose: 800.0 mg/kg/injection, schedule: Q01DX007 (ip), vehicle: saline, higher = longer survival) is 110 % of control; the T/C (endpoint: median survival time, dose: 800.0 mg/kg/injection, schedule: Q04DX003 (ip), vehicle: saline, higher = longer survival) is 112 % of control; the T/C (endpoint: median survival time, dose: 1200.0 mg/kg/injection, schedule: Q04DX003 (ip), vehicle: saline, higher = longer survival) is 114 % of control. Moreover, the T/C (endpoint: median tumor weight (est.), dose: 75.0 mg/kg/injection, schedule: Q02DX011 (ip), vehicle: saline, higher = larger tumour) was 89 % of control; the T/C (endpoint: median tumor weight (est.), dose: 100.0 mg/kg/injection, schedule: Q02DX011 (ip), vehicle: saline, higher = larger tumour) was 56 % of control; the T/C (endpoint: median tumor weight (est.), dose: 150.0 mg/kg/injection, schedule: Q02DX011 (ip), vehicle: saline, higher = larger tumour) was 82 % of control; the T/C (endpoint: median tumor weight (est.), dose: 200.0 mg/kg/injection, schedule: Q02DX011 (ip), vehicle: saline, higher = larger tumour) is 39 % of control; the T/C (endpoint: median tumor weight (est.), dose: 300.0 mg/kg/injection, schedule: Q02DX011 (ip), vehicle: saline, higher = larger tumour) is 3 % of control; the T/C (endpoint: median tumor weight (est.), dose: 400.0 mg/kg/injection, schedule: Q02DX011 (ip), vehicle: saline, higher = larger tumour) is 14 % of control.
`O=C(O)CCCc1ccc(N(CCCl)CCCl)cc1`: the T/C runs as follows: (endpoint: median survival time, dose: 1.5 mg/kg/injection, schedule: Q02DX030 (ip), vehicle: saline with Tween-80, higher = longer survival) 158 % of control; (endpoint: median survival time, dose: 3.0 mg/kg/injection, schedule: Q02DX030 (ip), vehicle: saline with Tween-80, higher = longer survival) 194 % of control; (endpoint: median survival time, dose: 3.0 mg/kg/injection, schedule: Q04DX006 (ip), vehicle: saline with Tween-80, higher = longer survival) 100 % of control; (endpoint: median survival time, dose: 6.0 mg/kg/injection, schedule: Q04DX006 (ip), vehicle: saline with Tween-80, higher = longer survival) 117 % of control; (endpoint: median survival time, dose: 12.0 mg/kg/injection, schedule: Q04DX006 (ip), vehicle: saline with Tween-80, higher = longer survival) 124 % of control.
For the compound `S=P(N1CC1)(N1CC1)N1CC1`, the T/C was 100 % of control (endpoint: median survival time, dose: 3.4 mg/kg/injection, schedule: Q01DX007 (ip), vehicle: saline, higher = longer survival); 105 % of control (endpoint: median survival time, dose: 3.4 mg/kg/injection, schedule: Q02DX007 (ip), vehicle: saline, higher = longer survival); 101 % of control (endpoint: median survival time, dose: 4.0 mg/kg/injection, schedule: Q04DX003 (ip), vehicle: saline, higher = longer survival); 105 % of control (endpoint: median survival time, dose: 5.0 mg/kg/injection, schedule: Q01DX007 (ip), vehicle: saline, higher = longer survival); 101 % of control (endpoint: median survival time, dose: 5.0 mg/kg/injection, schedule: Q02DX007 (ip), vehicle: saline, higher = longer survival); 100 % of control (endpoint: median survival time, dose: 6.0 mg/kg/injection, schedule: Q04DX003 (ip), vehicle: saline, higher = longer survival). Besides, the T/C is 99 % of control (endpoint: median survival time, dose: 6.0 mg/kg/injection, schedule: Q07DX003 (ip), vehicle: saline, higher = longer survival); 106 % of control (endpoint: median survival time, dose: 7.5 mg/kg/injection, schedule: Q01DX007 (ip), vehicle: saline, higher = longer survival); 117 % of control (endpoint: median survival time, dose: 7.5 mg/kg/injection, schedule: Q02DX007 (ip), vehicle: saline, higher = longer survival); 107 % of control (endpoint: median survival time, dose: 9.0 mg/kg/injection, schedule: Q04DX003 (ip), vehicle: saline, higher = longer survival); 108 % of control (endpoint: median survival time, dose: 9.0 mg/kg/injection, schedule: Q07DX003 (ip), vehicle: saline, higher = longer survival); 111 % of control (endpoint: median survival time, dose: 12.0 mg/kg/injection, schedule: Q07DX003 (ip), vehicle: saline, higher = longer survival).
As for `Cc1ccc(S(=O)(=O)O)cc1.Cc1ccc(S(=O)(=O)O)cc1.[NH-]C1CCCCC1[NH-].[Pt+2]`, for the setting “endpoint: median survival time, dose: 4.0 mg/kg/injection, schedule: Q02DX032 (ip), vehicle: dextrose, higher = longer survival”, the T/C was 94 % of control.
For `CN(N=O)C(=O)N[C@@H](C=O)[C@@H](O)[C@H](O)[C@H](O)CO`, the T/C is, setting by setting: (endpoint: mean tumor weight, dose: 9.38 mg/kg/injection, schedule: Q02DX011 (ip), vehicle: other, higher = larger tumour) 64 % of control; (endpoint: mean tumor weight, dose: 18.75 mg/kg/injection, schedule: Q02DX011 (ip), vehicle: other, higher = larger tumour) 37 % of control and 56 % of control; (endpoint: mean tumor weight, dose: 37.5 mg/kg/injection, schedule: Q02DX011 (ip), vehicle: other, higher = larger tumour) 11 % of control and 15 % of control; (endpoint: mean tumor weight, dose: 75.0 mg/kg/injection, schedule: Q02DX011 (ip), vehicle: other, higher = larger tumour) 1 % of control; (endpoint: median tumor weight (est.), dose: 9.38 mg/kg/injection, schedule: Q02DX011 (ip), vehicle: other, higher = larger tumour) 45 % of control; (endpoint: median tumor weight (est.), dose: 18.75 mg/kg/injection, schedule: Q02DX011 (ip), vehicle: other, higher = larger tumour) 39 % of control and 60 % of control. The T/C (endpoint: median tumor weight (est.), dose: 37.5 mg/kg/injection, schedule: Q02DX011 (ip), vehicle: other, higher = larger tumour) was 10 % of control and 34 % of control.
In the case of `c1cc2n(n1)CCN2`, the T/C runs as follows: (endpoint: mean tumor weight, dose: 6.25 mg/kg/injection, schedule: Q02DX011 (ip), vehicle: saline, higher = larger tumour) 122 % of control; (endpoint: mean tumor weight, dose: 12.5 mg/kg/injection, schedule: Q02DX011 (ip), vehicle: saline, higher = larger tumour) 85 % of control; (endpoint: mean tumor weight, dose: 25.0 mg/kg/injection, schedule: Q02DX011 (ip), vehicle: saline, higher = larger tumour) 103 % of control; (endpoint: median tumor weight (est.), dose: 6.25 mg/kg/injection, schedule: Q02DX011 (ip), vehicle: saline, higher = larger tumour) 161 % of control.
Regarding `Cc1c(N)nc([C@H](CC(N)=O)NC[C@H](N)C(N)=O)nc1C(=O)N[C@H](C(=O)N[C@H](C)[C@@H](O)[C@H](C)C(=O)N[C@H](C(=O)NCCc1nc(-c2nc(C(=O)NCCC[S+](C)C)cs2)cs1)[C@@H](C)O)C(OC1OC(CO)C(O)C(O)C1OC1OC(CO)C(O)C(OC(N)=O)C1O)c1cnc[nH]1` (some centres undefined), the T/C is 108 % of control (endpoint: median survival time, dose: 1.6 mg/kg/injection, schedule: Q04DX009 (ip), vehicle: saline, higher = longer survival) and 115 % of control (endpoint: median survival time, dose: 3.2 mg/kg/injection, schedule: Q04DX009 (ip), vehicle: saline, higher = longer survival).
